Read-outs that look alike come from different tables or passages of the source.
Settings: chicken; for Cl D7-D21 Delta (%) / Consumption D7-D21 Delta (%) / Weight gain D7-D21 Delta (%): relative to control R1
Description: The starting product is a food base that is deficient in methionine, methionine being the nutritional element for which it is desired to observe a response, and the said nutritional element that is lacking is then introduced in the reference forms and in the test form, and then the performance levels obtained in each of the systems are compared, system R1 corresponding to no introduction of methionine.
Two chickens per cage are tested, with controlled randomization by chance.
Seven treatments were carried out:
R1: without added methionine,
R2 and R3: +Rhodimet™ NP99 (D,L-methionine powder sold by the applicant) at two different doses,
R4 and R5: +Rhodimet™ AT88, at two different doses
R6 and R7: +KMB, at two different doses.
They were each repeated 14 times and are represented in Table 3 below.
Zootechnical performance levels as a function of treatments (period 7-21 days)
The smaller the number of grams required to obtain one gram of weight gain, the greater the efficiency of the product, as illustrated in the FIGURE.
The ratio of KMB efficiency to DL-methionine efficiency is then calculated by calculating the ratio of the conversion efficiency values calculated at the two doses used.

[1] = addition of 0.1% of methionine, 7-21 days, versus control
[2] = higher dose (NP99 0.200%, AT88 0.225%, KMB 0.204%)
[3] = higher dose (R3 NP99 0.200%, R5 AT88 0.225%, R7 KMB 0.204%)
[4] = lower dose (NP99 0.100%, AT88 0.113%, KMB 0.102%)
[5] = lower dose (R2 NP99 0.100%, R4 AT88 0.113%, R6 KMB 0.102%)

CSCCC(N)C(=O)O (racemic) [Rhodimet™ NP99, D,L-methionine]
decrease of the consumption index [1]: −11% | increase of the weight gain [1]: 90 g | Cl D7-D21 Delta (%) [2]: −9.2% | Consumption D7-D21 Delta (%) [2]: 5.5% | Weight gain D7-D21 Delta (%) [2]: 16.2% | Consumption D7-D21 (g) Means [3]: 823 g | Mortality D7-D21 [3]: 0.0% | Weight gain D7-D21 (g) Means [3]: 527 b g | Cl D7-D21 Delta (%) [4]: −11.1% | Consumption D7-D21 Delta (%) [4]: 6.7% | Weight gain D7-D21 Delta (%) [4]: 19.8% | Consumption D7-D21 (g) Means [5]: 832 g | Mortality D7-D21 [5]: 0.0% | Weight gain D7-D21 (g) Means [5]: 544 b g

From US7662997B2, “Synthesis and applications of 2-oxo-4-methylthiobutyric acid, its salts and its derivatives” (Adisseo Ireland Limited, priority 2004, dated 2010)
